Publication PMC5615155 (Toxicology Reports, 2017)
Where two headings read alike, the source gives them in different places.

Tests used:
[1] = system: E. coli strain WP2 uvrA; details: up to 5000 μg/plate, with and without metabolic activation; cited from earlier work
[2] = system: HPBLs; details: cited from earlier work
[3] = system: S. typhimurium strains TA98, TA100, TA1535, TA1537; details: up to 5000 μg/plate, with and without metabolic activation; cited from earlier work
[4] = system: CHO-WBL cells; details: ± metabolic activation, up to 2500 μg/mL; cited from earlier work
[5] = cited from earlier work
[6] = in vitro microsomal metabolism; format: in vitro ADME, human; details: 10 μM, 0.5 mg/mL, +NADPH, 120 min
[7] = in vitro microsomal metabolism; format: in vitro ADME, Sprague-Dawley rat; details: 10 μM, 0.5 mg/mL, +NADPH, 120 min
[8] = male mice, 2000 mg/kg bw; cited from earlier work
[9] = Day 1 of 90-day study, cited from earlier work

For `CC(C)CC(=O)N1CCC[C@H](COc2cccc3c2C(N)=NS(=O)(=O)N3)C1` [S617, (S)-1-(3-(((4-amino-2,2-dioxido-1H-benzo[c][1,2,6]thiadiazin-5-yl)oxy)methyl)piperidin-1-yl)-3-methylbutan-1-one], the “bacterial reverse mutation result” value [1] is listed as “non-mutagenic”, the chromosome aberration result [2] is listed as “non-clastogenic” and the “bacterial reverse mutation result” value [3] is listed as “non-mutagenic”. The “in vitro micronucleus result” value [4] was “neither clastogenic nor aneugenic”, the AUClast ([5]; iv 1.0 mg/kg, F) was 212 ng·h/mL and the Cmax ([5]; iv 1.0 mg/kg, F) was 1308 ng/mL. The Tmax ([5]; iv 1.0 mg/kg, F) was 0.03 h, the AUClast ([5]; iv 1.0 mg/kg, M) was 263 ng·h/mL and the Cmax ([5]; iv 1.0 mg/kg, M) was 1663 ng/mL. The Tmax ([5]; iv 1.0 mg/kg, M) was 0.03 h, the “%F” value ([5]; oral gavage 10 mg/kg, F) was 1.73% and the AUClast ([5]; oral gavage 10 mg/kg, F) was 36.7 ng·h/mL. The Cmax ([5]; oral gavage 10 mg/kg, F) was 4.80 ng/mL, the Tmax ([5]; oral gavage 10 mg/kg, F) was 0.88 h and the t1/2 ([5]; oral gavage 10 mg/kg, F) was 4.25 h. For the same molecule, the “%F” value ([5]; oral gavage 10 mg/kg, M) was 0.67%, the AUClast ([5]; oral gavage 10 mg/kg, M) was 17.5 ng·h/mL and the Cmax ([5]; oral gavage 10 mg/kg, M) was 3.30 ng/mL. For the same molecule, the Tmax ([5]; oral gavage 10 mg/kg, M) was 0.44 h, the t1/2 ([5]; oral gavage 10 mg/kg, M) was 3.85 h and the “%F” value ([5]; oral gavage 30 mg/kg, F) was 0.89%. The AUClast ([5]; oral gavage 30 mg/kg, F) was 56.3 ng·h/mL, the Cmax ([5]; oral gavage 30 mg/kg, F) was 9.40 ng/mL and the Tmax ([5]; oral gavage 30 mg/kg, F) was 1.38 h. For the same molecule, the t1/2 ([5]; oral gavage 30 mg/kg, F) was 3.57 h, the “%F” value ([5]; oral gavage 30 mg/kg, M) was 0.54% and the AUClast ([5]; oral gavage 30 mg/kg, M) was 42.5 ng·h/mL. For the same molecule, the Cmax ([5]; oral gavage 30 mg/kg, M) was 7.10 ng/mL, the Tmax ([5]; oral gavage 30 mg/kg, M) was 1.25 h and the t1/2 ([5]; oral gavage 30 mg/kg, M) was 3.03 h. The “%F” value ([5]; oral gavage 100 mg/kg, F) was 0.44%, the AUClast ([5]; oral gavage 100 mg/kg, F) was 92.6 ng·h/mL and the Cmax ([5]; oral gavage 100 mg/kg, F) was 18.3 ng/mL. The Tmax ([5]; oral gavage 100 mg/kg, F) was 0.50 h, the t1/2 ([5]; oral gavage 100 mg/kg, F) was 1.45 h and the “%F” value ([5]; oral gavage 100 mg/kg, M) was 0.20%. The AUClast ([5]; oral gavage 100 mg/kg, M) was 53.2 ng·h/mL, the Cmax ([5]; oral gavage 100 mg/kg, M) was 10.1 ng/mL and the Tmax ([5]; oral gavage 100 mg/kg, M) was 1.38 h. The t1/2 ([5]; oral gavage 100 mg/kg, M) was 3.48 h.
With `O=C1CC2(CCCC2)CC(=O)N1CCCCN1CCN(c2ncccn2)CC1` [Buspirone, reference compound] the “% MS (EIC) peak area of parent relative to time 0” value [6] was 2% and the “% MS (EIC) peak area of parent relative to time 0” value [7] was 21%.
In the case of `CCCNC(=O)C(C)(C)COc1cccc2c1C(N)=NS(=O)(=O)N2` [S6973, 3-((4-amino-2,2-dioxido-1H-benzo[c][1,2,6]thiadiazin-5-yl)oxy)-2,2-dimethyl-N-propylpropanamide], the “in vivo micronucleus result” value [8] is listed as “neither clastogenic nor aneugenic”, the “bacterial reverse mutation result” value [1] is listed as “non-mutagenic” and the chromosome aberration result [2] is listed as “non-clastogenic”. The “bacterial reverse mutation result” value [3] was “non-mutagenic”, the AUClast ([5]; iv 2.5 mg/kg, M) was 1760 ng·h/mL and the Cmax ([5]; iv 2.5 mg/kg, M) was 3997 ng/mL. The Tmax ([5]; iv 2.5 mg/kg, M) was 0.083 h, the t1/2 ([5]; iv 2.5 mg/kg, M) was 0.78 h and the “%F” value ([5]; oral gavage 5.0 mg/kg, M) was 9.56%. For the same molecule, the AUClast ([5]; oral gavage 5.0 mg/kg, M) was 337 ng·h/mL, the Cmax ([5]; oral gavage 5.0 mg/kg, M) was 74.8 ng/mL and the Tmax ([5]; oral gavage 5.0 mg/kg, M) was 1.33 h. For the same molecule, the t1/2 ([5]; oral gavage 5.0 mg/kg, M) was 3.67 h, the “%F” value ([5]; oral gavage 10 mg/kg, M) was 6.43% and the AUClast ([5]; oral gavage 10 mg/kg, M) was 453 ng·h/mL. For the same molecule, the Cmax ([5]; oral gavage 10 mg/kg, M) was 103 ng/mL, the Tmax ([5]; oral gavage 10 mg/kg, M) was 1.00 h and the t1/2 ([5]; oral gavage 10 mg/kg, M) was 2.98 h. For the same molecule, the “%F” value ([5]; oral gavage 20 mg/kg, M) was 3.93%, the AUClast ([5]; oral gavage 20 mg/kg, M) was 553 ng·h/mL and the Cmax ([5]; oral gavage 20 mg/kg, M) was 111 ng/mL. The Tmax ([5]; oral gavage 20 mg/kg, M) was 1.33 h, the t1/2 ([5]; oral gavage 20 mg/kg, M) was 4.53 h and the “bioavailability, food ad-mix” value ([9]; 5.0 mg/kg bw) was 8.04%. For the same molecule, the “bioavailability, food ad-mix” value ([9]; 20 mg/kg bw) was 7.73%.
